In PubChem BioAssay (NCI):
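Protocol summary: plate cells (96-well), add compound at 5 concentrations, incubate 48 h, interpolate endpoints linearly. GI50 is the concentration that inhibits growth by half. TGI is the concentration that stops growth completely.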

Columns and labels:
Experiment in all cases: inhibition of tumour cell growth, NCI panel, 48 h
[1] = test system: 786-0 renal
[2] = test system: A498 renal
[3] = test system: A549 NSCLC
[4] = test system: ACHN renal
[5] = test system: BT-549 breast
[6] = test system: CAKI-1 renal
[7] = test system: CCRF-CEM leukemia
[8] = test system: COLO 205 colon
[9] = test system: DU-145 prostate
[10] = test system: EKVX NSCLC
[11] = test system: HCC-2998 colon
[12] = test system: HCT-116 colon
[13] = test system: HCT-15 colon
[14] = test system: HL-60(TB) leukemia
[15] = test system: HOP-62 NSCLC
[16] = test system: HOP-92 NSCLC
[17] = test system: HS 578T breast
[18] = test system: HT29 colon
[19] = test system: IGROV1 ovarian
[20] = test system: K-562 leukemia
[21] = test system: KM12 colon
[22] = test system: LOX IMVI melanoma
[23] = test system: M14 melanoma
[24] = test system: MALME-3M melanoma
[25] = test system: MCF7 breast
[26] = test system: MDA-MB-231 breast
[27] = test system: MDA-MB-435
[28] = test system: MOLT-4 leukemia
[29] = test system: NCI-H226 lung
[30] = test system: NCI-H23 lung
[31] = test system: NCI-H460 lung
[32] = test system: NCI-H522 lung
[33] = test system: NCI/ADR-RES ovarian
[34] = test system: OVCAR-3 ovarian
[35] = test system: OVCAR-4 ovarian
[36] = test system: OVCAR-5 ovarian
[37] = test system: OVCAR-8 ovarian
[38] = test system: PC-3 prostate
[39] = test system: RPMI-8226 leukemia
[40] = test system: RXF 393 renal
[41] = test system: SF-268 CNS
[42] = test system: SF-295 CNS
[43] = test system: SF-539 CNS
[44] = test system: SK-MEL-2 melanoma
[45] = test system: SK-MEL-28 melanoma
[46] = test system: SK-MEL-5 melanoma
[47] = test system: SK-OV-3 ovarian
[48] = test system: SN12C renal
[49] = test system: SNB-19 CNS
[50] = test system: SNB-75 CNS
[51] = test system: SR leukemia
[52] = test system: SW-620 colon
[53] = test system: T-47D breast
[54] = test system: TK-10 renal
[55] = test system: U251 CNS
[56] = test system: UACC-62 melanoma
[57] = test system: UO-31 renal

## CSc1nc2c(c(=O)[nH]1)N=C1c3ccccc3C(=O)C1C(c1ccccc1)N2 (centres undefined)
[1]
  GI50: 6.44 µM
  TGI: > 100 µM
[2]
  GI50: 2 µM
  TGI: 38 µM
[3]
  GI50: 6.98 µM
  TGI: > 100 µM
[4]
  GI50: 3.73 µM
  TGI: > 100 µM
[5]
  GI50: 5.35 µM
  TGI: > 100 µM
[6]
  GI50: 2.18 µM
  TGI: > 100 µM
[7]
  GI50: 6.92 µM
  TGI: > 100 µM
[8]
  GI50: 3.53 µM
  TGI: > 100 µM
[9]
  GI50: 13.4 µM
  TGI: > 100 µM
[10]
  GI50: 12.8 µM
  TGI: > 100 µM
[11]
  GI50: 6.75 µM
  TGI: > 100 µM
[12]
  GI50: 4.21 µM
  TGI: > 100 µM
[13]
  GI50: 2.8 µM
  TGI: > 100 µM
[14]
  GI50: 2.51 µM
  TGI: > 100 µM
[15]
  GI50: 5.37 µM
  TGI: > 100 µM
[16]
  GI50: 12 µM
  TGI: > 100 µM
[17]
  GI50: 2.1 µM
  TGI: 7.18 µM
[18]
  GI50: 2.97 µM
  TGI: > 100 µM
[19]
  GI50: 4.54 µM
  TGI: > 100 µM
[20]
  GI50: 1.27 µM
  TGI: > 100 µM
[21]
  GI50: 2.27 µM
  TGI: 37.5 µM
[22]
  GI50: 5.65 µM
  TGI: > 100 µM
[23]
  GI50: 3.29 µM
  TGI: > 100 µM
[24]
  GI50: 2.33 µM
  TGI: > 100 µM
[25]
  GI50: 2.4 µM
  TGI: > 100 µM
[26]
  GI50: 4.09 µM
  TGI: > 100 µM
[27]
  GI50: 0.494 µM
  TGI: 6.91 µM
[28]
  GI50: 5.24 µM
  TGI: > 100 µM
[29]
  GI50: 4.2 µM
  TGI: > 100 µM
[30]
  GI50: 5.82 µM
  TGI: > 100 µM
[31]
  GI50: 3.16 µM
  TGI: 38.1 µM
[32]
  GI50: 1.41 µM
  TGI: 30.4 µM
[33]
  GI50: 4.54 µM
  TGI: 32.1 µM
[34]
  GI50: 2.12 µM
  TGI: 5.67 µM
[35]
  GI50: 5.62 µM
  TGI: > 100 µM
[36]
  GI50: 63.4 µM
  TGI: > 100 µM
[37]
  GI50: 19.1 µM
  TGI: > 100 µM
[38]
  GI50: 3.64 µM
  TGI: > 100 µM
[39]
  GI50: 3.01 µM
  TGI: > 100 µM
[40]
  GI50: 22 µM
  TGI: > 100 µM
[41]
  GI50: 4.55 µM
  TGI: > 100 µM
[42]
  GI50: 1.91 µM
  TGI: > 100 µM
[43]
  GI50: 2.84 µM
  TGI: 17.9 µM
[44]
  GI50: 9.02 µM
  TGI: > 100 µM
[45]
  GI50: 3.73 µM
  TGI: > 100 µM
[46]
  GI50: 1.5 µM
  TGI: 67.2 µM
[47]
  GI50: 7.65 µM
  TGI: > 100 µM
[48]
  GI50: 6.39 µM
  TGI: > 100 µM
[49]
  GI50: > 100 µM
  TGI: > 100 µM
[50]
  GI50: 1.27 µM
  TGI: 8.78 µM
[51]
  GI50: 1.51 µM
  TGI: > 100 µM
[52]
  GI50: 2.92 µM
  TGI: > 100 µM
[53]
  GI50: 4.6 µM
  TGI: > 100 µM
[54]
  GI50: 73.6 µM
  TGI: > 100 µM
[55]
  GI50: 3.52 µM
  TGI: > 100 µM
[56]
  GI50: 2.14 µM
  TGI: > 100 µM
[57]
  GI50: 5.23 µM
  TGI: > 100 µM
